Measurements as given in US20200181284A1, “EPIGENETIC INHIBITORS FOR SENSITIZING HEMATOLOGIC OR OTHER MALIGNANCIES TO GLUCOCORTICOID THERAPY” (UNIVERSITY OF SOUTHERN CALIFORNIA, priority 2017, published 2020).

How the values were obtained:
[1] = test system: relapsed B-ALL cells (ALL121); assay: PDX model of ALL: NSG mice engrafted with ALL121, spleen size and human ALL cells in spleen; assay type: in vivo; settings: dex monotherapy 7.5 mg/kg daily, two weeks
Description: As proof of concept, we tested this combination in a PDX model of ALL.

[2] = test system: NALM-6; assay: Cell death assay (PrestoBlue viability, 3 days); assay type: cell-based; settings: Homo sapiens
Description: Cell death assays: We used PrestoBlue to measure cell viability in response to knockdown and treatment. Cells were grown to a density of 250,000 cell/ml, then dispensed into black tissue culture plates and grown overnight. In the morning, cells were treated. For both CAL-101 (Selleckchem, S2226) and dex (Sigma, D4902), viability was measured after 3 days. As PrestoBlue measures NADPH/NADH metabolites, the balance of which can be affected by GC treatment, we performed frequent cell count spot checks manually by trypan blue exclusion to ensure that fluorescence measurements reflected true viability. Both CAL-101 and dex were dissolved in ethanol, and used 1:1000 in cell culture for a final ethanol concentration of 0.1%. […] Viabilities and EC50 were then calculated using four parameter non-least squares fitting using Prism 6. qPCR of Causative genes: Cells were grown to a density of 1 million cells/ml, then aliquoted into 6 well plates in the afternoon, then grown overnight. […]
The optimal signal was determined by incubating cells with 1 ^M dex for 0, 4, 8, and 24 hours. […] Each experiment was performed at least three times, and analyzed using GraphPad (Prism 6). Significant differences between drug and control and between either drug alone and combinations was determined by two sided Student's t-test (P-Value<0.05). […]

[3] = test system: RCH-ACV; assay: Cell death assay (PrestoBlue viability, 3 days); assay type: cell-based, human
Description: (§1) Cell death assays: We used PrestoBlue to measure cell viability in response to knockdown and treatment. Cells were grown to a density of 250,000 cell/ml, then dispensed into black tissue culture plates and grown overnight. In the morning, cells were treated. For both CAL-101 (Selleckchem, S2226) and dex (Sigma, D4902), viability was measured after 3 days. As PrestoBlue measures NADPH/NADH metabolites, the balance of which can be affected by GC treatment, we performed frequent cell count spot checks manually by trypan blue exclusion to ensure that fluorescence measurements reflected true viability. Both CAL-101 and dex were dissolved in ethanol, and used 1:1000 in cell culture for a final ethanol concentration of 0.1%. Combination treatments were performed in triplicate in 384 well plates with 20 dilutions of dex from 10^M to 0 and 9 dilutions of CAL-101 from 10^M to 0. Viabilities and EC50 were then calculated using four parameter non-least squares fitting using Prism 6. qPCR of Causative genes: Cells were grown to a density of 1 million cells/ml, then aliquoted into 6 well plates in the afternoon, then grown overnight. Cells were then treated with the drugs and times indicated, at which point cells were spun down at 400 g for 5 minutes, the medium aspirated, and the pellet resuspended in 0.7 ml Qiazol/Trizol and frozen. RNA was then isolated using the miRNAeasy protocol. cDNA was then prepared form 1^g of RNA suing SuperScript3, and qPCR performed using BioRad iQ mix. Primers for qPCR were designed using the IDT web site, then tested for each gene. […] Expression levels for each gene were corrected for primer efficiency, normalized to RPL19, then compared to controls (Pfaffl, 2001).
(§2) The optimal signal was determined by incubating cells with 1 ^M dex for 0, 4, 8, and 24 hours. […] Cells were incubated with dex alone, CAL-101 alone, and in combination for 24 hours, then harvested and qPCR performed as described above. Each experiment was performed at least three times, and analyzed using GraphPad (Prism 6). Significant differences between drug and control and between either drug alone and combinations was determined by two sided Student's t-test (P-Value<0.05).
(§3) Three cell lines (NALM6, SUP-B15, and RCH-ACV), one resistant patient sample (HM3101), and one relapsed Phlike xenograft (ALL121) were incubated with increasing concentrations of dex or CAL-101 for 3 days. Cell viability was measured by PrestoBlue staining. Curves, values, and errors are based on at least 3 replicates. Bar plot of the EC50, calculated by four-parameter least-squares fitting (Both plotted and calculated in GraphPad Prism).

[4] = test system: SUP-B15; assay: Cell death assay (PrestoBlue viability, 3 days); assay type: cell-based, human; settings: Homo sapiens
Description: as §1, §2, §3

[5] = test system: NALM-6 cells; assay: shRNA screen: selection of infected NALM-6 cells with dex, viability after each round; assay type: cell-based, human; settings: for viability at 0.05 µM: Homo sapiens, 50 nM dexamethasone
Description: Transduction: NALM-6 cells were grown in T-175 flasks maintaining a cell density below 2 million cells/ml until a sufficient number of cells were obtained. In order to obtain a sufficient number of cells infected with each shRNA to measure both enrichment and depletion in response to dex selection, we sought to infect >1000 cells with each shRNA. In order to minimize double infection, we targeted an infection rate of ˜30%. For the Cancer library, we estimated that for 1000× coverage of 54,775 shRNAs at a 30% infection rate, we would have to start with ˜200 million cells. To ensure optimal infection, NALM-6 cells were plated at density of 1.5 million cells/ml in 6 well plates. Virus was added at a ratio of 1:10 viral supernatant/NALM-6 culture volume. Cells were the spinfected at 1000×g, 33° C., for 2 hours in the presence of 8 µg/ml polybrene. Cells were then washed in PBS, resuspended in fresh RPMI+10% FBS, and allowed to recover. Our actual infection rate was ˜70%, as measured by flow cytometry using the mCherry marker of the pMK1098 vector, for an approximate coverage of 2000 cells for each shRNA. Cells were then selected for infection using 0.5 µg/ml puromycin for 2 days, washed, and allowed to recover. The infected cells were then expanded and split into 5 pools: Infected (Time 0 or T0), Infected that would be untreated (TF), and three pools that would be treated with dex (R1-3). T0 and TF was composed of 100 million cells. T0 was frozen immediately, and TF was allowed to grow to a density no greater than 3 million cells/ml through the course of the experiment. Since we expected ˜80% death upon treatment, we started with 500 million cells each for R1-3.
Selection: Previous attempts at the screen had been hampered by inconsistent infection and selection with dex. We therefore decided to split TF and R1-3 into two experiments and treat with 50 nM dex, which kills ˜80% of NALM-6 cells in 3 days, and 1 pM dex, which kills >90%. TF samples were treated with equal volumes of DMSO vehicle. A separate TF sample was culture for both the 50 nM and 1 pM experiments. Cells were treated with each of these concentrations for three days, washed, allowed to recover, then treated two more times. From infection to the end of the experiment took 35 days for 50 nM dex and 46 days for 1 pM.
AGEK Screen: Based on the results of the Cancer panel screen, we elected to screen the three other panels (Apoptosis, Gene Expression, Kinases) under 50 nM selection by dex. The screen was performed largely as described above, but our infection rate was <30% for a coverage of ˜900 cells/shRNA.

[6] = test system: LAX7R and LAX56 primary human B-ALL cells; assay: Survival of primary B-ALL cells co-cultured with OP-9 feeder cells (Annexin V/7AAD); assay type: cell-based; settings: 100-200 nM Dex alone, 3 or 5 days
Description: Primary ALL cells (LAX7R and LAX56) were established from mouse xenografts derived from patient samples (Adam et al., 2017; Hsieh et al., 2013). They were cultured in 24 well tissue-culture plates on irradiated OP-9 cells with growth medium containing MEM-α with 20% heat-inactivated fetal bovine serum, and 100 IU/ml penicillin and 100 μg/ml streptomycin. On day 3 and day 5 after the addition of drugs, ALL cells were collected, and apoptosis was assessed using PE Annexin V Apoptosis Detection Kit with 7-AAD.
As shown FIGS. 41A-1, 41A-2, 41B-1, and 41B-2, LAX7R (FIGS. 41A-1 and 41A-2) or LAX56 (FIGS. 41B-1 and 41B-2) primary human B-ALL cells were co-cultured with OP-9 feeder cells for 3 days (left) or 5 days (right) in the presence of the indicated drugs, and cell survival was determined by staining with Annexin/7AAD. p-value was calculated using a paired t-test, and different symbols were used to indicate p-values between different groups.+indicates statistical significance (+p≤0.05, ++p≤0.01 and + + + p≤0.001) between Dexamethasone or AZD2811 treated group and DMSO control group; # indicates statistical significance (#p≤0.05, ##p≤0.01 and # # # p≤0.001) between AZD2811+Dexamethasone combination group and AZD2811 group; * indicates statistical difference (*p≤0.05, **p≤0.01, * * *p≤0.001) between combination group and respective Dexamethasone treated groups. Values shown are mean and SD for 3 biological replicates, which are representative of 3 independent experiments.

## C[C@@H]1C[C@H]2[C@@H]3CCC4=CC(=O)C=C[C@]4(C)[C@@]3(F)[C@@H](O)C[C@]2(C)[C@@]1(O)C(=O)CO [dex, dexamethasone]
[1]
  effect on spleens (spleen size): no effect
[2]; NALM-6, 72 h, NALM6, viability after 3 days, read-out: EC50 for dex
  EC50: 3.9 nM
[2]; NALM-6, read-out: approximately the EC90 for dex
  EC90: ~62.5 nM
[3]; Homo sapiens, 72 h, viability after 3 days, estimate, read-out: EC50 for dex
  EC50: 500 nM
[3]; even at the highest dex concentrations
  viability maintained: ~50%
[4]; 72 h, SUP-B15, viability after 3 days, read-out: EC50 for dex
  EC50: 1.6 nM
[4]; SUP-B15, read-out: approximately the EC90 for dex
  EC90: ~4 nM
[5]; 1 pM dex
  NALM-6 cells killed: > 90%
[5]; 50 nM dex, 3 days
  NALM-6 cells killed: ~80%
[5]; NALM-6, Apoptosis, Gene Expression, and Kinase Panels, treatment number 1
  viability at 0.05 µM: 52%
[5]; NALM-6, Apoptosis, Gene Expression, and Kinase Panels, treatment number 2
  viability at 0.05 µM: 66%
[5]; NALM-6, Apoptosis, Gene Expression, and Kinase Panels, treatment number 3
  viability at 0.05 µM: 65%
[5]; NALM-6, Cancer Panel, treatment number 1
  viability at 0.05 µM: 18%
[5]; NALM-6, Cancer Panel, treatment number 2
  viability at 0.05 µM: 72%
[5]; NALM-6, Cancer Panel, treatment number 3
  viability at 0.05 µM: 58%
[6]
  cell survival: 20-60%
